# Molecular target: telomerase enzyme (Homo sapiens, UniProt O14746)
# Assay: Flash Plate-based telomerase activity assay
# Format: biochemical
# Conditions: two hours of incubation at 37°, biotinylated oligo primer, radioactive labeled probe
# Protocol: The telomerase activity of the compounds has been evaluated using a Flash Plate-based assay.
# Briefly the assay mixture is constituted of:
# telomerase enzyme diluted in a buffer, the composition of which has been selected to maintain the enzyme activity stable along the duration of the assay.
# dNTPs, deoxynucleotides 5′-triphosphate.
# biotinylated oligo as primer.
# increasing concentrations of test compounds/positive control.
# After two hours of incubation at 37° degrees the telomeric repeats added by telomerase are evaluated by hybridization in solution with a 3′-radioactive labeled short oligonucleotide probe.
# The extent of hybridization is then quantitated by transferring the reaction mixture in a streptavidin-coated flash plate, where the binding between biotin and streptavidin occurs.
# The telomerase activity is proportional to the radioactivity measured and the inhibitory activity of the compounds is evaluated as IC50 using the Sigma Plot fit program.
# With the above-described method IC50 values of the compounds of the present invention were determined.
# Chain of telomerase enzyme (O14746 whole entry): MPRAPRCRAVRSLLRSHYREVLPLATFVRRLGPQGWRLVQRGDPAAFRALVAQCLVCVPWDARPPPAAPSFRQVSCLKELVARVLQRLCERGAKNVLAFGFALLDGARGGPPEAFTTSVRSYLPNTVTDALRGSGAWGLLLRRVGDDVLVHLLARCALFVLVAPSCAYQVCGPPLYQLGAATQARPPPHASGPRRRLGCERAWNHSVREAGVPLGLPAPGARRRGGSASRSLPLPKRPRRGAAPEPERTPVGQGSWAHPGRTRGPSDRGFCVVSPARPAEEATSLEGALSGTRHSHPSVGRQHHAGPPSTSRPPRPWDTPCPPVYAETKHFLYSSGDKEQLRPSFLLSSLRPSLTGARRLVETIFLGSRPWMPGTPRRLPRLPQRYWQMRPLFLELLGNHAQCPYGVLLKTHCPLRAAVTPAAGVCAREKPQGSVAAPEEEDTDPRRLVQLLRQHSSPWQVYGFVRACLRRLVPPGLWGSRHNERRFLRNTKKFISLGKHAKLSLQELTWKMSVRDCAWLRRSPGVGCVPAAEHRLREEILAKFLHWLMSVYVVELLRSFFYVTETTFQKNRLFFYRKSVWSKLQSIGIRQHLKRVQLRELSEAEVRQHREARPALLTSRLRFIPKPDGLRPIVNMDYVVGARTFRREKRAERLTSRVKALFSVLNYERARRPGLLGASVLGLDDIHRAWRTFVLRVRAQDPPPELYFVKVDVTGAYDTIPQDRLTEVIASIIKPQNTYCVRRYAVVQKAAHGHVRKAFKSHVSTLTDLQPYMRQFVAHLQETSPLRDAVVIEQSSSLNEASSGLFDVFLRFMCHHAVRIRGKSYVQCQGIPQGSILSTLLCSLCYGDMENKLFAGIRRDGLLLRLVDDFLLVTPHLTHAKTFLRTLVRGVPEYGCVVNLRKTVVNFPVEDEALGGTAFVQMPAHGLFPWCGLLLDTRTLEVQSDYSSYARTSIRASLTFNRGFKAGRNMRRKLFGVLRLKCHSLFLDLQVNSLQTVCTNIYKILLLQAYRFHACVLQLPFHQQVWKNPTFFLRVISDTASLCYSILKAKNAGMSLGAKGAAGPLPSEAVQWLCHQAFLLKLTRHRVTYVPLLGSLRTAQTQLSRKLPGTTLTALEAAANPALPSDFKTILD
row,SMILES,IC50 [µM]
1,"COc1ccc2c(=O)cc(-c3ccc4[nH]cnc4c3)oc2c1OC [Compound 61, 2-(1H-benzimidazol-5-yl)-7,8-dimethoxy-4H-chromen-4-one]",2.2
2,"O=c1cc(-c2ccc(Cl)c(Cl)c2)oc2c(O)c(O)ccc12 [Compound 46, 2-(3,4-dichlorophenyl) -7,8-dihydroxy-4H-chromen-4-one]",14.3
3,"COc1ccc(-c2oc3c(OC)c(OC)ccc3c(=O)c2Cl)cc1OC [Compound 38, 3-chloro-2-(3,4-dimethoxyphenyl)-7,8-dimethoxy-4H-chromen-4-one]",> 40
4,"COc1ccc(-c2cc(=O)c3ccc(O)c(O)c3o2)cc1OC [Compound 7, 7,8-dihydroxy-2-(3,4-dimethoxyphenyl)-4H-chromen-4-one]",12
5,"O=c1cc(-c2cccc(O)c2)oc2c(O)c(O)ccc12 [Compound 5, 7,8-dihydroxy-2-(3-hydroxyphenyl)-4H-chromen-4-one]",34
6,"O=c1cc(-c2ccccc2O)oc2c(O)c(O)ccc12 [Compound 4, 7,8-dihydroxy-2-(2-hydroxyphenyl)-4H-chromen-4-one]",25.3
7,"CC(=O)Oc1ccc(-c2cc(=O)c3ccc(OC(C)=O)c(OC(C)=O)c3o2)cc1OC(C)=O [Compound 14, 2-(3,4-diacetoxyphenyl)-7,8-diacetoxy—4H-chromen-4-one]",15
8,"O=c1cc(-c2ccc(O)c(O)c2)oc2c(O)c(O)ccc12 [Compound 3, 2-(3,4-dihydroxyphenyl)-7,8-dihydroxy-4H-chromen-4-one]",0.3
9,"O=c1c(Cl)c(-c2ccc(O)c(O)c2)oc2c(O)c(O)ccc12 [Compound 37, 3-chloro-2-(3,4-dihydroxyphenyl)-7,8-dihydroxy-4H-chromen-4-one]",0.8
10,"O=c1cc(-c2ccccc2)oc2c(O)c(O)ccc12 [Compound 1, 7,8-dihydroxy-2-phenyl-4H-chromen-4-one]",33
11,"COc1ccc2c(=O)cc(-c3ccc(O)c(O)c3)oc2c1O [Compound 78, 8-hydroxy-7-methoxy-2-(3,4-dihydroxyphenyl)-4H-chromen-4-one]",7.8
12,"COc1ccc(-c2cc(=O)c3cc(Cl)c(OC)c(OC)c3o2)cc1OC [Compound 50, 6-chloro-2-(3,4-dimethoxyphenyl)-7,8-dimethoxy-4H-chromen-4-one]",5.4
13,"O=c1cc(-c2cccc(Cl)c2)oc2c(O)c(O)ccc12 [Compound 45, 2-(3-chlorophenyl)-7,8-dihydroxy-4H-chromen-4-one]",30
14,"O=c1cc(-c2ccc(O)cc2)oc2c(O)c(O)ccc12 [Compound 2, 7,8-dihydroxy-2-(4-hydroxyphenyl)-4H-chromen-4-one]",3
15,"CC(=O)Oc1ccc(-c2cc(=O)c3ccc(O)c(O)c3o2)cc1OC(C)=O [Compound 90, 2-(3,4-diacetoxyphenyl)-7,8-dihydroxy-4H-chromen-4-one]",0.64
16,"Nc1ccc(-c2cc(=O)c3ccc(O)c(O)c3o2)cc1N [Compound 52, 2-(3,4-diaminophenyl)-7,8-dihydroxy-4H-chromen-4-one]",3.6
17,"COc1ccc(-c2cc(=O)c3ccc(OC)c(OC)c3o2)cc1O [Compound 87, 7,8-dimethoxy-2-(3-hydroxy-4-methoxyphenyl)-4H-chromen-4-one]",8.7
18,"O=c1c(F)c(-c2ccc(O)c(O)c2)oc2c(O)c(O)ccc12 [Compound 41, 3-fluoro-2-(3,4-dihydroxyphenyl)-7,8-dihydroxy-4H-chromen-4-one]",0.6
19,"COc1ccc2c(=O)cc(-c3ccc4[nH]c(=O)[nH]c4c3)oc2c1OC [Compound 67, 5-(7,8-dimethoxy-4-oxo-4H-chromen-2-yl)-1,3-dihydro-2H-benzimidazol-2-one]",19
20,"COc1ccc2c(=O)cc(-c3ccc(N)c(N)c3)oc2c1OC [Compound 51, 2-(3,4-diaminophenyl)-7,8-dimethoxy-4H-chromen-4-one]",7.4
21,"COc1ccc(-c2cc(=O)c3ccc(O)c(O)c3o2)cc1O [Compound 79, 7,8-dihydroxy-2-(3-hydroxy-4-methoxyphenyl)-4H-chromen-4-one]",11.7
22,"O=c1cc(-c2ccc(O)c(O)c2)oc2c(O)c(O)c(Cl)cc12 [Compound 49, 6-chloro-2-(3,4-dihydroxyphenyl)-7,8-dihydroxy-4H-chromen-4-one]",0.34
23,"COc1ccc2c(=O)cc(-c3ccc4[nH]nnc4c3)oc2c1OC [Compound 65, 2-(1H-1,2,3-benzotriazol-5-yl)-7,8-dimethoxy-4H-chromen-4-one]",> 40
24,"COc1ccc(-c2cc(=O)c3ccc(OC)c(OC)c3o2)cc1OC [Compound 24, 7,8-dimethoxy-2-(3,4-dimethoxyphenyl)-4H-chromen-4-one]",> 40
25,"COc1ccc2c(=O)cc(-c3ccc(NC(C)=O)c(NC(C)=O)c3)oc2c1OC [Compound 58, N-[2-(acetylamino)-4-(7,8-dimethoxy-4-oxo-4H-chromen-2-yl)phenyl]acetamide]",> 40
26,"N#Cc1c(-c2ccc(O)c(O)c2)oc2c(O)c(O)ccc2c1=O [Compound 39, 3-cyano-2-(3,4-dihydroxyphenyl)-7,8-dihydroxy-4H-chromen-4-one]",0.13

# From patent US20020160983A1, “Substituted benzopyranones as telomerase inhibitors” (priority 2001, published 2002)
